Earlier results, collected in patent publication US20080160503A1, “RAPID ANALYSIS OF ORAL BIOAVAILABILITY” (priority 2006, published 2008).

Settings: background statement; for first-pass metabolism: oral administration, gut wall and liver; for bioavailability through the oral route: no data shown

Question: What does the source list for `CC(C)NCC(O)c1ccc(O)c(O)c1` (centres unmarked) [isoproterenol]?
Answer: first-pass metabolism: extensive; bioavailability through the oral route: virtually zero

Question: Which “bioavailability through the oral route” value does the source give for `NC[C@H](O)c1ccc(O)c(O)c1` [norepinephrine] here?
Answer: Its value is “virtually zero”.

Question: Which first-pass metabolism does the source give for `C[C@]12CC[C@H]3[C@@H](CCC4=CC(=O)CC[C@@]43C)[C@@H]1CC[C@@H]2O` [testosterone] here?
Answer: Its first-pass metabolism is “extensive”.

Question: And the “bioavailability through the oral route” value?
Answer: Its value is “virtually zero”.
